Molecules are shown by their SMILES. Starred links: 1 amine or outer side, 2 acyl side, 3 side chain; linkers in the order of their positions; H or OH if unused. Positions of bridges follow the written chain, without caps; N, C: chain ends. Non-standard residues stand in square brackets, D forms with d. Residues, ends and D or L forms follow the SMILES beside them. X47 = O=C([C@H](CNCc1ccccc1O[C@@H]1O[C@H](CO)[C@@H](O)[C@H](O)[C@H]1O)N[*:1])[*:2]; X46 = CCn1c2ccccc2c2cc(CNCC[C@H](N[*:1])C(=O)[*:2])ccc21; Trp(1-CH2COOH) = N[C@@H](Cc1cn(CC(=O)O)c2ccccc12)C(=O)O; X45 = CCn1c2ccccc2c2cc(CNC[C@H](N[*:1])C(=O)[*:2])ccc21; X21 = O=C([C@H](CCNCc1c2ccccc2nc2ccccc12)N[*:1])[*:2]; X57 = COc1cc2cccc(OC)c2cc1CNCC[C@H](N[*:1])C(=O)[*:2]; X10 = O=C([C@H](CNCc1c2ccccc2nc2ccccc12)N[*:1])[*:2]; X36 = COc1cc2cccc(OC)c2cc1CNC[C@H](N[*:1])C(=O)[*:2]; X14 = O=C([C@H](CCNCc1cccc2[nH]ccc12)N[*:1])[*:2]; X13 = O=C([C@H](CNCc1cccc2[nH]ccc12)N[*:1])[*:2]; X17 = O=C([C@H](CNCc1cncc2ccccc12)N[*:1])[*:2]; X20 = O=C([C@H](CNCc1nccc2ccccc12)N[*:1])[*:2]; X23 = O=C([C@H](CCNCc1cc2ccccc2o1)N[*:1])[*:2]; X22 = O=C([C@H](CNCc1cc2ccccc2o1)N[*:1])[*:2]; Hyp = O=C(O)[C@@H]1C[C@@H](O)CN1; NMeNle = CCCC[C@H](NC)C(=O)O; NMeA = CN[C@@H](C)C(=O)O; Dab = NCC[C@H](N)C(=O)O

In this experiment the target is T1, PD-1/PD-L1 (Homo sapiens, UniProt Q9NZQ7).
T1 construct: TVMV protease site (linker) (C); made in house; host or cells: HEK293T cells
T1 sequence (Q9NZQ7 18-239): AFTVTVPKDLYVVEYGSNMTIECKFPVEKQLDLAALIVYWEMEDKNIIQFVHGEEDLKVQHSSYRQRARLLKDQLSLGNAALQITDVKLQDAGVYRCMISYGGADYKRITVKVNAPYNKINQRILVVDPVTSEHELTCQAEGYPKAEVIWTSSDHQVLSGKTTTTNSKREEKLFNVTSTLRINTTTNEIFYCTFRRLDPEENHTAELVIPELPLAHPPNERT
The experiment is described as follows: PD-1/PD-L1 Homogenous Time-Resolved Fluorescence (HTRF) binding assay. To be noted: PD-L1-His 10 nM, PD-1-Ig 20 nM. The text has this:
The ability of the compounds of formula (I) to bind to PD-L1 was investigated using a PD-1/PD-L1 Homogenous Time-Resolved Fluorescence (HTRF) binding assay.
The interaction of PD-1 and PD-L1 can be assessed using soluble, purified preparations of the extracellular domains of the two proteins. The PD-1 and PD-L1 protein extracellular domains were expressed as fusion proteins with detection tags, for PD-1, the tag was the Fc portion of Immunoglobulin (PD-1-Ig) and for PD-L1 it was the 6 histidine motif (PD-L1-His). All binding studies were performed in an HTRF assay buffer consisting of dPBS supplemented with 0.1% […] bovine serum albumin and 0.05% (v/v) Tween-20. For the h/PD-L1-His binding assay, inhibitors were pre-incubated with PD-L1-His (10 nM final) for 15 m in 4 µl of assay buffer, followed by addition of PD-1-Ig (20 nM final) in 1 µl of assay buffer and further incubation for 15 m. HTRF detection was achieved using europium crypate-labeled anti-Ig (1 nM final) and allophycocyanin (APC) labeled anti-His (20 nM final). Antibodies were diluted in HTRF detection buffer and 5 µl was dispensed on top of the binding reaction. The reaction mixture was allowed to equilibrate for 30 minutes and the resulting signal (665 nm/620 nm ratio) was obtained using an EnVision fluorometer. Additional binding assays were established between the human proteins PD-1-Ig/PD-L2-His (20 & 5 nM, respectively) and CD80-His/PD-L1-Ig (100 & 10 nM, respectively).
Recombinant Proteins: Human PD-1 (25-167) with a C-terminal human Fc domain of immunoglobulin G (Ig) epitope tag [hPD-1 (25-167)-3S-IG] and human PD-L1 (18-239) with a C-terminal His epitope tag [hPD-L1(18-239)-TVMV-His] were expressed in HEK293T cells and purified sequentially by ProteinA affinity chromatography and size exclusion chromatography. Human PD-L2-His and CD80-His was obtained through commercial sources.
Table 1 lists the IC50 values for representative examples of this disclosure measured in the PD-1/PD-L1 Homogenous Time-Resolved Fluorescence (HTRF) binding assay.
The compound `CCCC[C@H]1C(=O)N(C)[C@@H](CCCC)C(=O)N[C@@H](CC(C)C)C(=O)N[C@H](C(=O)NCC(N)=O)CSCC(=O)N[C@@H](Cc2ccc(O)cc2)C(=O)N(C)[C@@H](C)C(=O)N[C@@H](CC(N)=O)C(=O)N2CCC[C@H]2C(=O)N[C@@H](CNCc2ccccc2O[C@@H]2O[C@H](CO)[C@@H](O)[C@H](O)[C@H]2O)C(=O)N[C@@H](CC(C)C)C(=O)N2C[C@H](O)C[C@H]2C(=O)N[C@@H](Cc2c[nH]c3ccccc23)C(=O)N[C@@H](CCN)C(=O)N[C@@H](Cc2cn(CC(=O)O)c3ccccc23)C(=O)N1C` [Example 1007] ({CH2CO}-Y[NMeA]NP[X47]L[Hyp]W[Dab][Trp(1-CH2COOH)][NMeNle][NMeNle]LCG-NH2; thioether N-14) showed an IC50 of 12 nM. With `CCCC[C@H]1C(=O)N(C)[C@@H](CCCC)C(=O)N[C@@H](CC(C)C)C(=O)N[C@H](C(=O)NCC(N)=O)CSCC(=O)N[C@@H](Cc2ccc(O)cc2)C(=O)N(C)[C@@H](C)C(=O)N[C@@H](CC(N)=O)C(=O)N2CCC[C@H]2C(=O)N[C@@H](CNCc2cccc3[nH]ccc23)C(=O)N[C@@H](CC(C)C)C(=O)N2C[C@H](O)C[C@H]2C(=O)N[C@@H](Cc2c[nH]c3ccccc23)C(=O)N[C@@H](CCNCc2cccc3[nH]ccc23)C(=O)N[C@@H](Cc2cn(CC(=O)O)c3ccccc23)C(=O)N1C` [Example 1008] ({CH2CO}-Y[NMeA]NP[X13]L[Hyp]W[X14][Trp(1-CH2COOH)][NMeNle][NMeNle]LCG-NH2; thioether N-14) the figure was 4.9 nM; with `CCCC[C@H]1C(=O)N(C)[C@@H](CCCC)C(=O)N[C@@H](CC(C)C)C(=O)N[C@H](C(=O)NCC(N)=O)CSCC(=O)N[C@@H](Cc2ccc(O)cc2)C(=O)N(C)[C@@H](C)C(=O)N[C@@H](CC(N)=O)C(=O)N2CCC[C@H]2C(=O)N[C@@H](CNCc2ccc3c(c2)c2ccccc2n3CC)C(=O)N[C@@H](CC(C)C)C(=O)N2C[C@H](O)C[C@H]2C(=O)N[C@@H](Cc2c[nH]c3ccccc23)C(=O)N[C@@H](CCNCc2ccc3c(c2)c2ccccc2n3CC)C(=O)N[C@@H](Cc2cn(CC(=O)O)c3ccccc23)C(=O)N1C` [Example 1009] ({CH2CO}-Y[NMeA]NP[X45]L[Hyp]W[X46][Trp(1-CH2COOH)][NMeNle][NMeNle]LCG-NH2; thioether N-14), 9.8 nM. With `CCCC[C@H]1C(=O)N(C)[C@@H](CCCC)C(=O)N[C@@H](CC(C)C)C(=O)N[C@H](C(=O)NCC(N)=O)CSCC(=O)N[C@@H](Cc2ccc(O)cc2)C(=O)N(C)[C@@H](C)C(=O)N[C@@H](CC(N)=O)C(=O)N2CCC[C@H]2C(=O)N[C@@H](CNCc2cc3ccccc3o2)C(=O)N[C@@H](CC(C)C)C(=O)N2C[C@H](O)C[C@H]2C(=O)N[C@@H](Cc2c[nH]c3ccccc23)C(=O)N[C@@H](CCNCc2cc3ccccc3o2)C(=O)N[C@@H](Cc2cn(CC(=O)O)c3ccccc23)C(=O)N1C` [Example 1010] ({CH2CO}-Y[NMeA]NP[X22]L[Hyp]W[X23][Trp(1-CH2COOH)][NMeNle][NMeNle]LCG-NH2; thioether N-14) the figure was 12 nM; with `CCCC[C@H]1C(=O)N(C)[C@@H](CCCC)C(=O)N[C@@H](CC(C)C)C(=O)N[C@H](C(=O)NCC(N)=O)CSCC(=O)N[C@@H](Cc2ccc(O)cc2)C(=O)N(C)[C@@H](C)C(=O)N[C@@H](CC(N)=O)C(=O)N2CCC[C@H]2C(=O)N[C@@H](CNCc2cc3c(OC)cccc3cc2OC)C(=O)N[C@@H](CC(C)C)C(=O)N2C[C@H](O)C[C@H]2C(=O)N[C@@H](Cc2c[nH]c3ccccc23)C(=O)N[C@@H](CCNCc2cc3c(OC)cccc3cc2OC)C(=O)N[C@@H](Cc2cn(CC(=O)O)c3ccccc23)C(=O)N1C` [Example 1011] ({CH2CO}-Y[NMeA]NP[X36]L[Hyp]W[X57][Trp(1-CH2COOH)][NMeNle][NMeNle]LCG-NH2; thioether N-14), 7 nM; with `CCCC[C@H]1C(=O)N(C)[C@@H](CCCC)C(=O)N[C@@H](CC(C)C)C(=O)N[C@H](C(=O)NCC(N)=O)CSCC(=O)N[C@@H](Cc2ccc(O)cc2)C(=O)N(C)[C@@H](C)C(=O)N[C@@H](CC(N)=O)C(=O)N2CCC[C@H]2C(=O)N[C@@H](CNCc2c3ccccc3nc3ccccc23)C(=O)N[C@@H](CC(C)C)C(=O)N2C[C@H](O)C[C@H]2C(=O)N[C@@H](Cc2c[nH]c3ccccc23)C(=O)N[C@@H](CCN)C(=O)N[C@@H](Cc2cn(CC(=O)O)c3ccccc23)C(=O)N1C` [Example 1013] ({CH2CO}-Y[NMeA]NP[X10]L[Hyp]W[Dab][Trp(1-CH2COOH)][NMeNle][NMeNle]LCG-NH2; thioether N-14), 4.6 nM. With `CCCC[C@H]1C(=O)N(C)[C@@H](CCCC)C(=O)N[C@@H](CC(C)C)C(=O)N[C@H](C(=O)NCC(N)=O)CSCC(=O)N[C@@H](Cc2ccc(O)cc2)C(=O)N(C)[C@@H](C)C(=O)N[C@@H](CC(N)=O)C(=O)N2CCC[C@H]2C(=O)N[C@@H](CNCc2ccc3c(c2)c2ccccc2n3CC)C(=O)N[C@@H](CC(C)C)C(=O)N2C[C@H](O)C[C@H]2C(=O)N[C@@H](Cc2c[nH]c3ccccc23)C(=O)N[C@@H](CCN)C(=O)N[C@@H](Cc2cn(CC(=O)O)c3ccccc23)C(=O)N1C` [Example 1014] ({CH2CO}-Y[NMeA]NP[X45]L[Hyp]W[Dab][Trp(1-CH2COOH)][NMeNle][NMeNle]LCG-NH2; thioether N-14) the figure was 4.7 nM; with `CCCC[C@H]1C(=O)N(C)[C@@H](CCCC)C(=O)N[C@@H](CC(C)C)C(=O)N[C@H](C(=O)NCC(N)=O)CSCC(=O)N[C@@H](Cc2ccc(O)cc2)C(=O)N(C)[C@@H](C)C(=O)N[C@@H](CC(N)=O)C(=O)N2CCC[C@H]2C(=O)N[C@@H](CNCc2cccc3[nH]ccc23)C(=O)N[C@@H](CC(C)C)C(=O)N2C[C@H](O)C[C@H]2C(=O)N[C@@H](Cc2c[nH]c3ccccc23)C(=O)N[C@@H](CCN)C(=O)N[C@@H](Cc2cn(CC(=O)O)c3ccccc23)C(=O)N1C` [Example 1015] ({CH2CO}-Y[NMeA]NP[X13]L[Hyp]W[Dab][Trp(1-CH2COOH)][NMeNle][NMeNle]LCG-NH2; thioether N-14), 5.1 nM. Regarding `CCCC[C@H]1C(=O)N(C)[C@@H](CCCC)C(=O)N[C@@H](CC(C)C)C(=O)N[C@H](C(=O)NCC(N)=O)CSCC(=O)N[C@@H](Cc2ccc(O)cc2)C(=O)N(C)[C@@H](C)C(=O)N[C@@H](CC(N)=O)C(=O)N2CCC[C@H]2C(=O)N[C@@H](CNCc2cc3c(OC)cccc3cc2OC)C(=O)N[C@@H](CC(C)C)C(=O)N2C[C@H](O)C[C@H]2C(=O)N[C@@H](Cc2c[nH]c3ccccc23)C(=O)N[C@@H](CCN)C(=O)N[C@@H](Cc2cn(CC(=O)O)c3ccccc23)C(=O)N1C` [Example 1016] ({CH2CO}-Y[NMeA]NP[X36]L[Hyp]W[Dab][Trp(1-CH2COOH)][NMeNle][NMeNle]LCG-NH2; thioether N-14), the half-maximal inhibitory concentration (IC50) was 6.4 nM. With `CCCC[C@H]1C(=O)N(C)[C@@H](CCCC)C(=O)N[C@@H](CC(C)C)C(=O)N[C@H](C(=O)NCC(N)=O)CSCC(=O)N[C@@H](Cc2ccc(O)cc2)C(=O)N(C)[C@@H](C)C(=O)N[C@@H](CC(N)=O)C(=O)N2CCC[C@H]2C(=O)N[C@@H](CNCc2nccc3ccccc23)C(=O)N[C@@H](CC(C)C)C(=O)N2C[C@H](O)C[C@H]2C(=O)N[C@@H](Cc2c[nH]c3ccccc23)C(=O)N[C@@H](CCN)C(=O)N[C@@H](Cc2cn(CC(=O)O)c3ccccc23)C(=O)N1C` [Example 1018] ({CH2CO}-Y[NMeA]NP[X20]L[Hyp]W[Dab][Trp(1-CH2COOH)][NMeNle][NMeNle]LCG-NH2; thioether N-14) the figure was 8.4 nM. With `CCCC[C@H]1C(=O)N(C)[C@@H](CCCC)C(=O)N[C@@H](CC(C)C)C(=O)N[C@H](C(=O)NCC(N)=O)CSCC(=O)N[C@@H](Cc2ccc(O)cc2)C(=O)N(C)[C@@H](C)C(=O)N[C@@H](CC(N)=O)C(=O)N2CCC[C@H]2C(=O)N[C@@H](CNCc2cncc3ccccc23)C(=O)N[C@@H](CC(C)C)C(=O)N2C[C@H](O)C[C@H]2C(=O)N[C@@H](Cc2c[nH]c3ccccc23)C(=O)N[C@@H](CCN)C(=O)N[C@@H](Cc2cn(CC(=O)O)c3ccccc23)C(=O)N1C` [Example 1019] ({CH2CO}-Y[NMeA]NP[X17]L[Hyp]W[Dab][Trp(1-CH2COOH)][NMeNle][NMeNle]LCG-NH2; thioether N-14) the figure was 7.9 nM; with `CCCC[C@H]1C(=O)N(C)[C@@H](CCCC)C(=O)N[C@@H](CC(C)C)C(=O)N[C@H](C(=O)NCC(N)=O)CSCC(=O)N[C@@H](Cc2ccc(O)cc2)C(=O)N(C)[C@@H](C)C(=O)N[C@@H](CC(N)=O)C(=O)N2CCC[C@H]2C(=O)N[C@@H](CNCc2c3ccccc3nc3ccccc23)C(=O)N[C@@H](CC(C)C)C(=O)N2C[C@H](O)C[C@H]2C(=O)N[C@@H](Cc2c[nH]c3ccccc23)C(=O)N[C@@H](CCNCc2c3ccccc3nc3ccccc23)C(=O)N[C@@H](Cc2cn(CC(=O)O)c3ccccc23)C(=O)N1C` [Example 1020] ({CH2CO}-Y[NMeA]NP[X10]L[Hyp]W[X21][Trp(1-CH2COOH)][NMeNle][NMeNle]LCG-NH2; thioether N-14), 9.9 nM.

(Values after patent US20230242585A1, “IMMUNOMODULATORS” (Bristol-Myers Squibb Company, priority 2020, published 2023).)
